In PMC3341351, “Down-Regulation of GABAA Receptor via Promiscuity with the Vasoactive Peptide Urotensin II Receptor. Potential Involvement in Astrocyte Plasticity” (PLoS ONE, 2012):

Tests used:
[1] = test system: GABAAR co-expressed with UT^HA 370; assay: Patch-clamp of Iso-evoked current in CHO co-expressing GABAAR and truncated UT^HA 370; assay type: cell-based; conditions: hUII 10^−8 M, 1 min, Iso 10^−4 M, 2 s
Text: For UT epitope-tagged with HA (UT^HA), or c-myc (UT^c-myc), human UT receptor cDNA inserted into pcDNA3.1 (Ressource Center, MI, USA) was amplified and PCR products were subcloned using the EcoRI and XhoI sites of pCMV-HA or pCMV-c-myc. Mutant UT receptor cDNAs were constructed by oligonucleotide-directed mutagenesis (Expand High Fidelity PCR System; Roche) using the human UT receptor cDNA inserted into pcDNA3.1 as a template. Two sets of forward and reverse oligonucleotides were used (Table S2) to introduce stop codons in frame of Leu370, Phe351, Gly332 and Thr319 (to generate UT371, UT351, UT332 and UT319, respectively). PCR products were subcloned using the EcoRI and XhoI sites of pCMV-HA after digestion by the same restriction enzymes. Mutagenesis was confirmed by automated nucleotide sequencing.
The conventional whole-cell configuration of the patch-clamp technique was used to study the GABA-gated currents in astrocytes and granule neurons, UT stably transfected CHO, CHO-UT, and CHO transiently transfected with diverse variants of UT and GABAAR subunits. After 24-h transfection, cell culture coverslips were placed in a small chamber (1.5 ml) on a stage of a right microscope DMLFSA (Leica, Heidelberg, Germany) and superfused continuously with the following bath solution containing (in mM): NaCl, 150; KCl, 2.5; HEPES, 5; CaCl2, 2; MgCl2, 1; glucose, 10 (pH 7.4 adjusted with NaOH). […]

[2] = test system: α2β3 GABAAR co-expressed with human UT; assay: Patch-clamp of Iso-evoked current in CHO-UT expressing α2β3 GABAAR; assay type: cell-based; conditions: hUII 10^−13 to 10^−7 M; Iso 10^−4 M, 2 s; −60 mV
Procedure: CHO-K1 cell lines were obtained from American Type Culture Collection (Manassas, VA, USA). The human UT stable CHO (CHO-UT) was generously provided by Dr Christophe Dubessy (Inserm, Rouen University, France) et generated by CHO electroporation with 20 µg pIRES-neo2-UT DNA and 500 µg sterile sonicated salmon sperm DNA using the EasyJect One electroporation system (Equibio, Angleur, Belgium), followed by repetitive rounds of limiting dilution of cells in G-418 (400 µg/ml) for selection. Normal or stable CHO was grown in Ham-F12 medium supplemented with 10% FBS, 1% antibiotic-antimicotic solution and 2 mM glutamine, at 37°C in a humidified incubator with an atmosphere of 5% CO2. The stable CHO-UT medium was supplemented with the antibiotic G-418 (40 µg/ml).
For transfection, cells were trypsinized (0.05%), triturated in HamF-12 containing 10% FBS media, pelleted by centrifugation, resuspended in 100 µl solution V for nucleofection by an Amaxa Nucleofector Device (Köln, Germany; set to program U-016). Experiments were performed on normal CHO or on the stable CHO-UT cells and transiently transfected with combinations of cDNA encoding α2β3γ2, α2β3γ1, α2β1γ2, α2β3γ1, α2β3, β3γ2 (4 µg of cDNA total/transfection) GABAAR subunits. Cells were seeded on 14-mm poly-L-lysine-coated glass bottom insert dishes at 5×10^5 cells in a volume of 0.5 ml/dish. […]

[3] = test system: cultured rat cortical astrocytes; set-up: method as in PMID 16942596, PMID 20192922; conditions: ref [41], [42]; cited from earlier work

Substance | hUII-induced fast short-term inhibition with UT^HA 370 [1] | hUII-induced long-term inhibition with UT^HA 370 ([1]; washout) | Inhibitory effect on Iso-evoked current, α2β3 [2] | Effect on cell proliferation [3]
ETPDCFWKYCV (disulfide) [hUII, human urotensin II, synthesized by solid phase methodology] | totally abolished | delayed, and significantly altered | totally ineffective | –
UII: Urotensin II, species not stated at that place (rUII in astrocytes, hUII in CHO and human cells) | – | – | – | stimulates cell proliferation
